Data as given in EP4568957B1, “SUBSTITUTED PHENYL OXOOXAZOLYL PIPERIDINE DIONE COMPOUNDS” (Bristol-Myers Squibb Company, priority 2023, dated 2025).

Assays:
Assay type in all cases: cell-based
IKZF2 Helios = IKZF2 Helios (Homo sapiens, UniProt Q96SW2+Q9UKS7); test: Human Regulatory T Cell Reprogramming Assay; design: endogenous in cells; host or cells: primary human CD4+CD127lowCD25+ Treg cells from healthy leukopaks; conditions: CD4+CD127lowCD25+ Treg cells; for IKZF2 Helios max % deg. observed: 12-13 days with compound; for DC50: 12-13 days, vs DMSO alone
Sequence of IKZF2 Helios (Q9UKS7 whole entry): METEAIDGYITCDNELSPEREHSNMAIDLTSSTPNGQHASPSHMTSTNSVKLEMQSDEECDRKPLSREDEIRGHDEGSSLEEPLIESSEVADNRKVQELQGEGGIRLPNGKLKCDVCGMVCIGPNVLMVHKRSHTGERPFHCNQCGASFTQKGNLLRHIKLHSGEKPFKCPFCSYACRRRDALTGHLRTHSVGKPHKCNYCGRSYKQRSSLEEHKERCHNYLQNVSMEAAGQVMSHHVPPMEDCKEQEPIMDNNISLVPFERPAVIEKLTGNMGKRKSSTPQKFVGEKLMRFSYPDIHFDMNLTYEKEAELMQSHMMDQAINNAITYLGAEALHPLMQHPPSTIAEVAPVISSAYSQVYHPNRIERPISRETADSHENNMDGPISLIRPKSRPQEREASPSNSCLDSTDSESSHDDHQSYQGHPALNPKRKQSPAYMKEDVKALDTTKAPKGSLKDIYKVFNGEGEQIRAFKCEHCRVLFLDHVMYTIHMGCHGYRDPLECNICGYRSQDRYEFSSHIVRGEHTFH
Sequence of IKZF2 Helios (Q96SW2 whole entry): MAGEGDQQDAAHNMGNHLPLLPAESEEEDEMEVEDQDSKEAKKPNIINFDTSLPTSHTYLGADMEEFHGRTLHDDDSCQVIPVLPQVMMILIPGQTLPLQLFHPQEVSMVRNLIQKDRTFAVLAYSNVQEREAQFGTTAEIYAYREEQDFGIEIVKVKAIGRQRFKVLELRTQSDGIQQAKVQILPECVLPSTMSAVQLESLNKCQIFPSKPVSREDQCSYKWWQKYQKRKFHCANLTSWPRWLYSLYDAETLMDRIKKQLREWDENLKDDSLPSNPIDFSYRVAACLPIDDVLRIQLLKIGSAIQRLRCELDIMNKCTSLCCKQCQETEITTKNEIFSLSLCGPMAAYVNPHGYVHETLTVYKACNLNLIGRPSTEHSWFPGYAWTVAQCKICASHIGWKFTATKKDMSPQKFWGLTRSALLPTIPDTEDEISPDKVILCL
Sequence of IKZF2 Helios (Q16531 whole entry partner): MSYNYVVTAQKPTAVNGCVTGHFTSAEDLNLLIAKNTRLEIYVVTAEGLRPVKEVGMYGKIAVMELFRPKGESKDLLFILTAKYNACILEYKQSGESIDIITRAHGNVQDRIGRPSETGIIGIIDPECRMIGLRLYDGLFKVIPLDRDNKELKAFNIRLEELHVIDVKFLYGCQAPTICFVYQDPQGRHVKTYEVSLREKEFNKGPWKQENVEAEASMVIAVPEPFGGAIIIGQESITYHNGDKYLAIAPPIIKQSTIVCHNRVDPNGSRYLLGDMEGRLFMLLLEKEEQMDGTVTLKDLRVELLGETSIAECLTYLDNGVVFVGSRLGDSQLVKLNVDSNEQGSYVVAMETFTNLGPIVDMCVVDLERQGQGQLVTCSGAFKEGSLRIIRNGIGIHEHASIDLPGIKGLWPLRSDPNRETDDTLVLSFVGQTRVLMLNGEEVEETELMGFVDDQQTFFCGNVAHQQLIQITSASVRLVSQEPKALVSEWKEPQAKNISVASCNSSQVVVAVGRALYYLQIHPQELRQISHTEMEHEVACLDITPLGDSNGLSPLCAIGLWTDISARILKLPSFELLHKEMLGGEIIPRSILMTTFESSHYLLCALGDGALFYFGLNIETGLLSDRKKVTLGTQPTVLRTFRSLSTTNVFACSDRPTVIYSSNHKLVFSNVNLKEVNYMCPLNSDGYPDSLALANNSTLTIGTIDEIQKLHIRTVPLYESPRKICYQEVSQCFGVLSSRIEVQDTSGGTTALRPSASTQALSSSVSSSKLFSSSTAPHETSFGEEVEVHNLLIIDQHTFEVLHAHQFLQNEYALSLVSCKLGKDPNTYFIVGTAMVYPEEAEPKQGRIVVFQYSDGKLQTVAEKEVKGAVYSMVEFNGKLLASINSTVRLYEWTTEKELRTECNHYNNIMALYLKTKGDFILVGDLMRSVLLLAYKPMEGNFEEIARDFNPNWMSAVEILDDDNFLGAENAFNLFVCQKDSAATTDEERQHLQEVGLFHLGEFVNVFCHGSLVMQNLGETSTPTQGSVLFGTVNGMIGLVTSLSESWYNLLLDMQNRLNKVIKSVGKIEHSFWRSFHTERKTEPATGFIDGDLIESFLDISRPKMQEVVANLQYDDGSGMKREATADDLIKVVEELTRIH
Description: Human CD4^+ T cells were isolated from fresh healthy leukopaks (Stemcell Technologies) using the RosetteSep Human CD4^+ T cell enrichment cocktail (Stemcell Technologies) and Ficoll density gradient centrifugation. Leukopaks were diluted with an equal volume of phosphate-buffered saline (PBS [Gibco]) supplemented with 2% fetal bovine serum (FBS, VWR Lifescience) and incubated with RosetteSep Human CD4^+ T cell enrichment cocktail for 20 minutes before layering on Ficoll-Paque Plus solution (GE Health Care). The cell-rich interface layer was harvested and washed twice with PBS supplemented with 2% FBS. Regulatory T cells were then isolated manually using the EasySep Human CD4^+CD127^lowCD25^+ Regulatory T cell isolation kit (Stemcell Technologies) according to the manufacturer's instructions. Cells were rested overnight in Roswell Park Memorial Institute (RPMI) 1640 media (Gibco) supplemented with 10% FBS, Pen/Strep (Gibco), MEM-NEAA (Gibco), and sodium pyruvate (Gibco) in a humidified incubator (37 °C, 5% CO2). Cells were then stained for CD4 (clone: RPA-T4, Biolegend), CD25 (clone: 2A3, BD Biosciences), and CD127 (clone: hIL-7R-M21, BD Biosciences). CD4^+CD127^lowCD25^+ cells were sorted on a BD FACS Aria Fusion sorter to a purity of 95%) or greater. Sorted cells were immediately used or cryopreserved for downstream assays.
Fresh or cryopreserved FACS-sorted CD4^+CD127^lowCD25^+ Treg cells were cultured at 25,000-50,000 cells/well of 96-well round bottom plates in RPMI 1640 media (Gibco) supplemented with 10% FBS, Pen/Strep (Gibco), MEM-NEAA (Gibco), and sodium pyruvate (Gibco). Cells were stimulated with Treg Xpander beads (Thermo Fisher) at cells-to-beads ratio of 1:4 in the presence of 500 U/mL recombinant human IL-2 (Proleukin). Compounds were added at titrated doses and cells were incubated at 37 °C, 5% CO2 for 12-13 days. Recombinant human IL-2 and compound were replenished every 2-3 days during the entire culture duration. On day 12 or 13, cells were restimulated with phorbol 12-myristate 13-acetate (PMA,) and ionomycin in the presence of the protein transport inhibitors brefeldin A and monensin (eBioscience Cell Stimulation Cocktail plus protein transport inhibitors, 500x, Catalog number 00-4975-93) before proceeding with flow cytometry staining and analysis.
For flow cytometry staining, cells were washed twice with flow cytometry staining buffer (Thermo Fisher) and incubated in Human Tru-stain Fc block (Biolegend) for 10 minutes before adding eFluor780 viability dye (Thermo Fisher) and surface marker antibody cocktail for 30 minutes at 4 °C. Cells were then fixed and permeabilized by incubation with FoxP3 transcription factor staining buffer (Thermo Fisher) for 30 minutes at 4 °C as per the kit manufacturer's instructions. Cells were washed twice with the Perm/Wash buffer supplied in the kit as per the manufacturer's instructions and incubated overnight at 4 °C with an intracellular antibody cocktail comprised of antibodies specific for the transcription factors shown in Table C. Cells were washed twice with Perm/Wash buffer and resuspended in flow cytometry staining buffer (Thermo Fisher) prior to acquisition. Sample acquisition and analysis was performed using a BD LSRFortessa (BD Biosciences) flow cytometer. Single stain controls for each fluorochrome were prepared using UltraComp eBead Compensation Beads (Thermo Fisher). Data were analyzed using FlowJo version 10 and GraphPad Prism Software. TABLE C

IKZF1 Ikaros = IKZF1 Ikaros (Homo sapiens, UniProt Q13422+Q96SW2); test: Human CD8+ T Cell Reprogramming Assay (method headed Human CD8+ T Cell Degradation Assay); design: Foxp3-BV421, HELIOS-PE-Cy7, EOS-PE, IKAROS-PECF594, AIOLOS-AF647; endogenous in cells; host or cells: human PBMC from healthy donors (CD8+ T cells gated by flow cytometry); conditions: for IKZF1* Ikaros max % deg. observed: Table E summary, Human CD8+ T Cell Reprogramming Assay (D-1); for DC50 / IKZF1 Ikaros Maximum Observed Degradation: human PBMC, CD8+ T cells, 24 hours; for DC50: vs DMSO alone
Sequence of IKZF1 Ikaros (Q13422 whole entry): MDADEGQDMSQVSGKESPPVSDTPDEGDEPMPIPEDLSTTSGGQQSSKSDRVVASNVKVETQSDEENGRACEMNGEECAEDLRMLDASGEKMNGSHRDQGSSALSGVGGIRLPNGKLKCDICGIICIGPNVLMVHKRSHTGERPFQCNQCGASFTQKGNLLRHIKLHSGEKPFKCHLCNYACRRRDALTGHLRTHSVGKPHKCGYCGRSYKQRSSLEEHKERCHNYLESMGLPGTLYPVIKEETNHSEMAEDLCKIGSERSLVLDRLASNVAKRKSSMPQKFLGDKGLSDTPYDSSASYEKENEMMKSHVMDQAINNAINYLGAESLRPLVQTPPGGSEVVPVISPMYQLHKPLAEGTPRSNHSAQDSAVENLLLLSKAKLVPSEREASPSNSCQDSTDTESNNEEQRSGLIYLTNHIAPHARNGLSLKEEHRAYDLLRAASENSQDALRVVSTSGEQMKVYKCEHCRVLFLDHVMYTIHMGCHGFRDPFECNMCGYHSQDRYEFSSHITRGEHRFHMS
Sequence of IKZF1 Ikaros (Q96SW2 whole entry): as the sequence (Q96SW2 whole entry) above
Sequence of IKZF1 Ikaros (Q16531 whole entry partner): as the sequence (Q16531 whole entry partner) above
Description: (§1) Cryopreserved healthy donor human peripheral blood mononuclear cells (PBMC) from healthy donors were thawed and seeded at 500,000 cells/well of 96-well round bottom plates in RPMI 1640 media (Gibco) supplemented with 10% FBS, Pen/Strep (Gibco), MEM-NEAA (Gibco), and sodium pyruvate (Gibco). Cells were treated with titrated doses of compound for 24 hours at 37 °C, 5% CO2, before analyzing by flow cytometry.
(§2) For flow cytometry staining, cells were washed twice with flow cytometry staining buffer (Thermo Fisher) and incubated in Human Tru-stain Fc block (Biolegend) for 10 minutes before adding eFluor780 viability dye (Thermo Fisher) and surface marker antibody cocktail containing LD-eFluor780, CD3-BUV-395, CD4-BUV805, CD8-FITC, and CD25-BV605 for 30 minutes at 4 °C, Cells were then fixed and permeabilized by incubation with permeabilization buffer (eBioscience FoxP3 buffer set 00-5523-00) for 30 minutes at 4 °C as per the kit manufacturer's instructions. Cells were washed twice with the Perm/Wash buffer supplied in the kit as per the manufacturer's instructions and incubated overnight at 4 °C with an intracellular antibody cocktail comprised of antibodies specific for the transcription factors (i.e. , Foxp3-BV421, HELIOS-PE-Cy7, EOS-PE, IKAROS-PECF594, AIOLOS-AF647). Cells were washed twice with Perm/Wash buffer and resuspended in flow cytometry staining buffer (Thermo Fisher) prior to acquisition. Sample acquisition and analysis was performed using a BD LSRFortessa (BD Biosciences) flow cytometer. Single-stain controls for each fluorochrome were prepared using UltraComp eBead Compensation Beads (Thermo Fisher). Data were analyzed using FlowJo version 10 and GraphPad Prism Software. TABLE D-1

IKZF3 Aiolos = IKZF3 Aiolos (Homo sapiens, UniProt Q96SW2+Q9UKT9); test: as above; design: Foxp3-BV421, HELIOS-PE-Cy7, EOS-PE, IKAROS-PECF594, AIOLOS-AF647; endogenous in cells; host or cells: human PBMC from healthy donors (CD8+ T cells gated by flow cytometry); conditions: for IKZF3* Aiolos max % deg. observed: Table E summary, Human CD8+ T Cell Reprogramming Assay (D-1); for DC50 / IKZF3 Aiolos Maximum Observed Degradation: human PBMC, CD8+ T cells, 24 hours; for DC50: vs DMSO alone
Sequence of IKZF3 Aiolos (Q9UKT9 whole entry): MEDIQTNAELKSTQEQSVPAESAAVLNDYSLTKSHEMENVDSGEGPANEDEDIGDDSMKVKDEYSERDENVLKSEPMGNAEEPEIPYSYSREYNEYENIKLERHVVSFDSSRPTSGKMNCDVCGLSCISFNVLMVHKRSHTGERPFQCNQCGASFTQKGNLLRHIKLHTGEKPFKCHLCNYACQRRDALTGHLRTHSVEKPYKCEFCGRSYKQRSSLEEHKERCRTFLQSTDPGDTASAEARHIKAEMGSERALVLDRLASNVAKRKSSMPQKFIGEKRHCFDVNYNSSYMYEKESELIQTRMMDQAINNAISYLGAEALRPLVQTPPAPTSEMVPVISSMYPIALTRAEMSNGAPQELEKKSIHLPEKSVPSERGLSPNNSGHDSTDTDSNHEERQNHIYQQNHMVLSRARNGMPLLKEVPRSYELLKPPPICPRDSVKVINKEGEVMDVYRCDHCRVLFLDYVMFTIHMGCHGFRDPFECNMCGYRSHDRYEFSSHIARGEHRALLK
Sequence of IKZF3 Aiolos (Q96SW2 whole entry): as the sequence (Q96SW2 whole entry) above
Sequence of IKZF3 Aiolos (Q16531 whole entry partner): as the sequence (Q16531 whole entry partner) above
Description: as §1, §2

Q: For Cc1cc(-c2ccc(-c3cn(C4CCC(=O)NC4=O)c(=O)o3)c(F)c2)nc(N)c1NCC1CCOCC1 (stereo not drawn) [Example 3, 3-(5-(4-(6-amino-4-methyl-5-(((tetrahydro-2H-pyran-4-yl)methyl)amino)pyridin-2-yl)-2-fluorophenyl)-2-oxooxazol-3(2H)-yl)piperidine-2,6-dione], which “IKZF2 Helios max % deg. observed” value (IKZF2 Helios) is on record?
A: The value was 73%.

Q: And the DC50 (IKZF2 Helios)?
A: Its DC50 is 247 nM.

Q: And the “IKZF1* Ikaros max % deg. observed” value (IKZF1 Ikaros)?
A: The value was 67%.

Q: What about the DC50 (IKZF1 Ikaros) of the same compound?
A: Its DC50 is 181 nM.

Q: What about the “IKZF3* Aiolos max % deg. observed” value (IKZF3 Aiolos) of the same compound?
A: The value was 67%.

Q: What about the DC50 (IKZF3 Aiolos) of the same compound?
A: The DC50 was 193 nM.

Q: Which “IKZF2 Helios max % deg. observed” value (IKZF2 Helios) does the source give for CO[C@H]1C[C@H](Oc2c(C)cc(-c3ccc(-c4cn(C5CCC(=O)NC5=O)c(=O)o4)c(F)c3)nc2N)C1 (relative stereo) [Example 2, trans 3-(5-(4-(6-amino-5-(3-methoxycyclobutoxy)-4-methylpyridin-2-yl)-2-fluorophenyl)-2-oxooxazol-3(2H)-yl)piperidine-2,6-dione] here?
A: The value was 74%.

Q: And the DC50 (IKZF2 Helios)?
A: The DC50 was 205 nM.

Q: What about the “IKZF1* Ikaros max % deg. observed” value (IKZF1 Ikaros) of the same compound?
A: Its value is 53%.

Q: And the DC50 (IKZF1 Ikaros)?
A: The DC50 was 132 nM.

Q: What about the “IKZF3* Aiolos max % deg. observed” value (IKZF3 Aiolos) of the same compound?
A: Its value is 58%.

Q: What about the DC50 (IKZF3 Aiolos) of the same compound?
A: Its DC50 is 86 nM.

Q: Which “IKZF1* Ikaros max % deg. observed” value (IKZF1 Ikaros) does the source give for Cc1cc(-c2ccc(-c3cn(C4CCC(=O)NC4=O)c(=O)o3)c(F)c2)nc(N)c1COC1CCOCC1 (stereo not drawn) [Example 5, 3-(5-(4-(6-Amino-4-methyl-5-(((tetrahydro-2H-pyran-4-yl)oxy)methyl)pyridin-2-yl)-2-fluorophenyl)-2-oxooxazol-3(2H)-yl)piperidine-2,6-dione] here?
A: The value was 56%.

Q: What about the DC50 (IKZF1 Ikaros) of the same compound?
A: The DC50 was 366 nM.

Q: What about the “IKZF3* Aiolos max % deg. observed” value (IKZF3 Aiolos) of the same compound?
A: Its value is 72%.

Q: And the “IKZF3 Aiolos Maximum Observed Degradation” value (IKZF3 Aiolos)?
A: The value was 72%.

Q: What about the DC50 (IKZF3 Aiolos) of the same compound?
A: The DC50 was 131 nM.

Q: How did the “IKZF2 Helios max % deg. observed” value (IKZF2 Helios) turn out when COC1CCN(Cc2ccc(-c3ccc(-c4cn(C5CCC(=O)NC5=O)c(=O)o4)c(F)c3)nc2N)CC1 (stereo not drawn) [Example 4, 3-(5-(4-(6-amino-5-((4-methoxypiperidin-1-yl)methyl)pyridin-2-yl)-2-fluorophenyl)-2-oxooxazol-3(2H)-yl)piperidine-2,6-dione] was run?
A: The value was 66%.

Q: And the DC50 (IKZF2 Helios)?
A: The DC50 was 155 nM.

Q: And the “IKZF1* Ikaros max % deg. observed” value (IKZF1 Ikaros)?
A: Its value is 80%.

Q: What about the DC50 (IKZF1 Ikaros) of the same compound?
A: The DC50 was 15 nM.

Q: And the “IKZF3* Aiolos max % deg. observed” value (IKZF3 Aiolos)?
A: The value was 77%.

Q: What about the DC50 (IKZF3 Aiolos) of the same compound?
A: The DC50 was 18 nM.

Q: O=C1CCC(n2cc(-c3ccc(Br)cc3F)oc2=O)C(=O)N1 (stereo not drawn) [Comparative Compound B, 3-(5-(4-bromo-2-fluorophenyl)-2-oxooxazol-3(2H)-yl)piperidine-2,6-dione, reference compound] was tested. Which “IKZF2 Helios max % deg. observed” value (IKZF2 Helios) did it give?
A: Its value is 6%.

Q: And the DC50 (IKZF2 Helios)?
A: Its DC50 is greater than 1000 nM.

Q: And the “IKZF1* Ikaros max % deg. observed” value (IKZF1 Ikaros)?
A: Its value is 17%.

Q: And the “IKZF1 Ikaros Maximum Observed Degradation” value (IKZF1 Ikaros)?
A: Its value is 17%.

Q: And the DC50 (IKZF1 Ikaros)?
A: Its DC50 is greater than 1000 nM.

Q: What about the “IKZF3* Aiolos max % deg. observed” value (IKZF3 Aiolos) of the same compound?
A: The value was 0%.

Q: What about the “IKZF3 Aiolos Maximum Observed Degradation” value (IKZF3 Aiolos) of the same compound?
A: The value was 0%.

Q: And the DC50 (IKZF3 Aiolos)?
A: Its DC50 is greater than 1000 nM.

Q: For CC1(C)Cc2cc(-c3ccc(-c4cn(C5CCC(=O)NC5=O)c(=O)o4)c(F)c3)nc(N)c2O1 (stereo not drawn) [Example 1, 3-(5-(4-(7-amino-2,2-dimethyl-2,3-dihydrofuro[2,3-c]pyridin-5-yl)-2-fluorophenyl)-2-oxooxazol-3(2H)-yl)piperidine-2,6-dione], which “IKZF2 Helios max % deg. observed” value (IKZF2 Helios) is on record?
A: The value was 72%.

Q: And the DC50 (IKZF2 Helios)?
A: The DC50 was 45 nM.

Q: And the “IKZF1* Ikaros max % deg. observed” value (IKZF1 Ikaros)?
A: The value was 76%.

Q: And the DC50 (IKZF1 Ikaros)?
A: Its DC50 is 53 nM.

Q: And the “IKZF3* Aiolos max % deg. observed” value (IKZF3 Aiolos)?
A: The value was 76%.

Q: And the DC50 (IKZF3 Aiolos)?
A: The DC50 was 18 nM.

Q: For O=C1CCC(n2cc(-c3ccccc3)oc2=O)C(=O)N1 (stereo not drawn) [Comparative Compound A, 3-(2-oxo-5-phenyloxazol-3(2H)-yl)piperidine-2,6-dione, reference compound], which “IKZF2 Helios max % deg. observed” value (IKZF2 Helios) is on record?
A: Its value is 1%.

Q: And the DC50 (IKZF2 Helios)?
A: The DC50 was greater than 1000 nM.

Q: What about the “IKZF1* Ikaros max % deg. observed” value (IKZF1 Ikaros) of the same compound?
A: Its value is 74%.

Q: What about the “IKZF1 Ikaros Maximum Observed Degradation” value (IKZF1 Ikaros) of the same compound?
A: Its value is 74%.

Q: And the DC50 (IKZF1 Ikaros)?
A: Its DC50 is 113 nM.

Q: And the “IKZF3* Aiolos max % deg. observed” value (IKZF3 Aiolos)?
A: The value was 80%.

Q: What about the “IKZF3 Aiolos Maximum Observed Degradation” value (IKZF3 Aiolos) of the same compound?
A: The value was 80%.

Q: And the DC50 (IKZF3 Aiolos)?
A: The DC50 was 21 nM.
